pIC50: −log10 of the molar value.
Molecular target: Vascular endothelial growth factor receptor 2 (Homo sapiens, UniProt P35968)
Experiment: Inhibitory concentration against human Vascular endothelial growth factor receptor 2

Sequence of Vascular endothelial growth factor receptor 2 (P35968 whole entry): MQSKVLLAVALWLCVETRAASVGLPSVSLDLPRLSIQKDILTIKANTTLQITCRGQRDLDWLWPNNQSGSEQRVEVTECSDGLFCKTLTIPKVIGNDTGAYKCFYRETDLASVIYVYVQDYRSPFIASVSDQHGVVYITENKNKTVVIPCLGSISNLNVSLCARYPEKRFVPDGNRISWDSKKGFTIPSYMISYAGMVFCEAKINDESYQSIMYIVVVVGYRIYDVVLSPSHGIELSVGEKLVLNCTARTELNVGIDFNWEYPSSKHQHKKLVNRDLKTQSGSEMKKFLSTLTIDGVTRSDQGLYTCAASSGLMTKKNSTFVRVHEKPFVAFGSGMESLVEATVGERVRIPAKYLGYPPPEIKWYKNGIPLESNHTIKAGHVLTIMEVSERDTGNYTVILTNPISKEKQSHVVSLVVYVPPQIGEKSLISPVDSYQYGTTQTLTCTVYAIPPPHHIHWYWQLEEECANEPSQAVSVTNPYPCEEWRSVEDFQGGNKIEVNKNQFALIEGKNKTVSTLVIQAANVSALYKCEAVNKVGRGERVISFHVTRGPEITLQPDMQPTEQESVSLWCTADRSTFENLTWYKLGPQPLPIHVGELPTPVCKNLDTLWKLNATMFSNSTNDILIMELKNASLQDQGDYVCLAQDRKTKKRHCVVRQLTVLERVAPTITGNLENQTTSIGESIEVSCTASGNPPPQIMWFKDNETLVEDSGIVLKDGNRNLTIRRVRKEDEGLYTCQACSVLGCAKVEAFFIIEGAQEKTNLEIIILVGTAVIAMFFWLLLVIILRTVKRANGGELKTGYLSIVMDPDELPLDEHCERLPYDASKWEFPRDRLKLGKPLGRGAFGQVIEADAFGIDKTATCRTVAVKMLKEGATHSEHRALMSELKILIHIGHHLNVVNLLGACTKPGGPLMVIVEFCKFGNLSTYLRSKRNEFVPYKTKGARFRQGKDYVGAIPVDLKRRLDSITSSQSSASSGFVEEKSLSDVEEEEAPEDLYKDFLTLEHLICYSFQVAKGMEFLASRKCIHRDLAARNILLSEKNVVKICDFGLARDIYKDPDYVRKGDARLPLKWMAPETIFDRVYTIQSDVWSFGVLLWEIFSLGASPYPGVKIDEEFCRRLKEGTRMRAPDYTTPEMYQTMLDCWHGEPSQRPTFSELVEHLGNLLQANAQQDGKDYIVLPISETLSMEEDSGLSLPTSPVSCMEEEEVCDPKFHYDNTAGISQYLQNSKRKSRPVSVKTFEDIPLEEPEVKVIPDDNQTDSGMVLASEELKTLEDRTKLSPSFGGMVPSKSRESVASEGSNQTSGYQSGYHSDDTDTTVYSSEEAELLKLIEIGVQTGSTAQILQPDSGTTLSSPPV

## C/C(=C\C=C\CC(C)C(CC(=O)O)O[C@H]1O[C@@H](CO)[C@H](O)[C@H](O)[C@@H]1O)C(=O)O (stereo partly specified)
  pIC50: 5.30

— ChEMBL document CHEMBL1143483, “A new antitumor compound from the plant Oryctanthus sp. as a VEGF receptor binding inhibitor” (Bioorg Med Chem Lett, 2005)
